From US7728012B2, “Carboxamide compounds and their use as calpain inhibitors” (Abbott GmbH & Co. KG, priority 2006, dated 2010)

How the values were obtained:
Format in all cases: biochemical
[1] = target: T1, cathepsin K activated from recombinant human procathepsin K (Homo sapiens, UniProt P43235); test: Cathepsin K kinetic fluorescence enzyme inhibition assay; conditions: selectivity ratio versus calpain I
T1 construct: purchased Calbiochem 342001; host or cells: E. coli
T1 sequence (P43235 115-329): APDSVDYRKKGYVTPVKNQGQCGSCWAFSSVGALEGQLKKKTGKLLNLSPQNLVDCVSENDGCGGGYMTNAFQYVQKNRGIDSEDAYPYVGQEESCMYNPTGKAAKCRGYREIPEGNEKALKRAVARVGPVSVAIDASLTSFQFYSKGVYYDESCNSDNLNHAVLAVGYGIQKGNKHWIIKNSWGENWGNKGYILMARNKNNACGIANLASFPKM

[2] = target: T2, recombinant human cathepsin S (Homo sapiens, UniProt P25774); test: Cathepsin S kinetic fluorescence enzyme inhibition assay; conditions: selectivity ratio versus calpain I
T2 construct: purchased Calbiochem 219343; host or cells: E. coli
T2 sequence (P25774 115-331): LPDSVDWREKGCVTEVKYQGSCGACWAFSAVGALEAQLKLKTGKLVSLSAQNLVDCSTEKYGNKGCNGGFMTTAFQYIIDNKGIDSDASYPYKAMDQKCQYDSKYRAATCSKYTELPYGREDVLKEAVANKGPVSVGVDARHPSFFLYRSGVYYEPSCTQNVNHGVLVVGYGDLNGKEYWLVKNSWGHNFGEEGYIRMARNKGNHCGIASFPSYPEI
Outline: (§1)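 cat B 0.25 nM + Z-Phe-Arg-AMC 100 μM; cat L 1 nM + Z-Phe-Arg-AMC 2 μM; cat S 0.5 nM (E. coli-expressed) + Z-Val-Val-Arg-AMC 20 μM. 50 mM MES pH 6.0, 2.5 mM L-Cys, RT. Ex 390/em 460, kinetic; Ki app = Cheng-Prusoff from IC50, mean of 2–4 curves.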

[3] = target: T3, cathepsin B isolated from human liver (Homo sapiens, UniProt P07858); test: Cathepsin B kinetic fluorescence enzyme inhibition assay; conditions: selectivity ratio versus calpain I
T3 construct: cathepsin B—isolated from human liver; purchased Calbiochem 219362; host or cells: human liver (tissue isolate)
Outline: as §1

[4] = target: T4, cathepsin L isolated from human liver (Homo sapiens, UniProt P07711); test: Cathepsin L kinetic fluorescence enzyme inhibition assay; conditions: selectivity ratio versus calpain I
T4 construct: cathepsin L—isolated from human liver; purchased Calbiochem 219402; host or cells: human liver (tissue isolate)
T4 sequence (P07711 114-333): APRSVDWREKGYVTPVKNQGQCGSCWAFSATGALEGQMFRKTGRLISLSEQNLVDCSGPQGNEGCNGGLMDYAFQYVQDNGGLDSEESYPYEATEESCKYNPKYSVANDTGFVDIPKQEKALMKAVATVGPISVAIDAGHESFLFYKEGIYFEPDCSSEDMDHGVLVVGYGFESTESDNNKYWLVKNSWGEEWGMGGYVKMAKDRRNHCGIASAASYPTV
Outline: as §1

[5] = target: T5, calpain-I isolated from human erythrocytes (Homo sapiens, UniProt P07384); test: Calpain I kinetic fluorescence enzyme inhibition assay; conditions: apparent Ki from IC50 by Cheng-Prussoff; average of 2 to 4 dose-effect plots
T5 construct: calpain-I—isolated from human erythrocytes; purchased Calbiochem 208713; host or cells: human erythrocytes (tissue isolate)
T5 sequence (P07384 1-714): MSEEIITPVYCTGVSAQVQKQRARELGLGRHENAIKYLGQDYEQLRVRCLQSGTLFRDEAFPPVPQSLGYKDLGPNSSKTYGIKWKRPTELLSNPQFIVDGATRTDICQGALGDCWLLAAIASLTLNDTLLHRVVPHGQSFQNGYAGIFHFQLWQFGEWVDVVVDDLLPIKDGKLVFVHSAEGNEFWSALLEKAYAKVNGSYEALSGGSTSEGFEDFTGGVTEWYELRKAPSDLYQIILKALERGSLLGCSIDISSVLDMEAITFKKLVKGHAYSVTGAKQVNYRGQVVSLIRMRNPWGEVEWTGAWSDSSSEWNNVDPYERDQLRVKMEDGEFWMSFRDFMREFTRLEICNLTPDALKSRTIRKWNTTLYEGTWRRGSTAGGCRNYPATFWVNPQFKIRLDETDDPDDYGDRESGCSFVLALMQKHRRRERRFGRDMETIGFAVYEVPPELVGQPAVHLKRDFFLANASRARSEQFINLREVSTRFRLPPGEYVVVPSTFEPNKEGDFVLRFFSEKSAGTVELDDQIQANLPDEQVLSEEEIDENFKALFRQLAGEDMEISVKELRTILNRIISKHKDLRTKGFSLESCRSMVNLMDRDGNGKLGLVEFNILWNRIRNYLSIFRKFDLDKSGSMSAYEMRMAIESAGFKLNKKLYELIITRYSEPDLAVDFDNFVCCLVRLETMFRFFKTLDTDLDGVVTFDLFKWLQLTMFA
T5 sequence (P04632 1-268 partner): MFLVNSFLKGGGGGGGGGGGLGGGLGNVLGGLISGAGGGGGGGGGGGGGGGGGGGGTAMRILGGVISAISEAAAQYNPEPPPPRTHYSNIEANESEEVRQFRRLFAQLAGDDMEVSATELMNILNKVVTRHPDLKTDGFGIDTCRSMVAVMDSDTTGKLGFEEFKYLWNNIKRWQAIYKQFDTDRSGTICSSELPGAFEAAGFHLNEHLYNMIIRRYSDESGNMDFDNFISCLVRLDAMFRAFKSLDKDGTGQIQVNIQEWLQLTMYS

Compound | Sel cat. K (Ki(cathepsin K)/Ki(calpain) ratio) [1] | Sel cat. S (Ki(cathepsin S)/Ki(calpain) ratio) [2] | Sel cat. B (Ki(cathepsin B)/Ki(calpain) ratio) [3] | Sel cat. L (Ki(cathepsin L)/Ki(calpain) ratio) [4] | Ki [5] [nM]
NC(=O)C(=O)C(Cc1ccccc1)NC(=O)c1cccnc1-n1ccc(-c2cc(Cl)ccc2Cl)n1 (stereo not drawn) [Example 112, N-[3-Amino-2,3-dioxo-1-(phenylmethyl)propyl]-2-[3-(2,5-dichlorophenyl)-1H-pyrazol-1-yl]pyridine-3-carboxamide] | ++ (Ki(cathepsin K)/Ki(calpain) ratio of ≧30) | ++ (Ki(cathepsin S)/Ki(calpain) ratio of ≧100) | ++ (Ki(cathepsin B)/Ki(calpain) ratio of ≧30) | ++ (Ki(cathepsin L)/Ki(calpain) ratio of ≧50) | ≤ 40
NC(=O)C(=O)C(Cc1ccc(F)cc1)NC(=O)c1cccnc1-n1ccc(-c2ccc(Cl)cc2Cl)n1 (stereo not drawn) [Example 114, N-{-3-Amino-1-[(4-fluorophenyl)methyl]-2,3-dioxopropyl}-2-[3-(2,4-dichlorophenyl)-1H-pyrazol-1-yl]pyridine-3-carboxamide] | ++ (Ki(cathepsin K)/Ki(calpain) ratio of ≧30) | ++ (Ki(cathepsin S)/Ki(calpain) ratio of ≧100) | ++ (Ki(cathepsin B)/Ki(calpain) ratio of ≧30) | ++ (Ki(cathepsin L)/Ki(calpain) ratio of ≧50) | 40 to 100
NC(=O)C(=O)C(Cc1ccccc1)NC(=O)c1cccnc1-n1ccc(-c2cccc(Cl)c2Cl)n1 (stereo not drawn) [Example 115, N-[3-Amino-2,3-dioxo-1-(phenylmethyl)propyl]-2-[3-(2,3-dichlorophenyl)-1H-pyrazol-1-yl]pyridine-3-carboxamide] | ++ (Ki(cathepsin K)/Ki(calpain) ratio of ≧30) | ++ (Ki(cathepsin S)/Ki(calpain) ratio of ≧100) | ++ (Ki(cathepsin B)/Ki(calpain) ratio of ≧30) | ++ (Ki(cathepsin L)/Ki(calpain) ratio of ≧50) | ≤ 40
NC(=O)C(=O)C(Cc1ccccc1)NC(=O)c1cccnc1-n1ccc(-c2c(F)cc(F)cc2F)n1 (stereo not drawn) [Example 116, N-[3-Amino-2,3-dioxo-1-(phenylmethyl)propyl]-2-[3-(2,4,6-trifluorophenyl)-1H-pyrazol-1-yl]pyridine-3-carboxamide] | + (10≦Ki(cathepsin K)/Ki(calpain)<30) | ++ (Ki(cathepsin S)/Ki(calpain) ratio of ≧100) | ++ (Ki(cathepsin B)/Ki(calpain) ratio of ≧30) | ++ (Ki(cathepsin L)/Ki(calpain) ratio of ≧50) | ≤ 40
COc1ccc(-c2ccn(-c3ncccc3C(=O)NC(Cc3ccccc3)C(=O)C(N)=O)n2)c(OC)c1 (stereo not drawn) [Example 117, N-[3-Amino-2,3-dioxo-1-(phenylmethyl)propyl]-2-{3-[2,4-bis(methyloxy)phenyl]-1H-pyrazol-1-yl}pyridine-3-carboxamide] | ++ (Ki(cathepsin K)/Ki(calpain) ratio of ≧30) | ++ (Ki(cathepsin S)/Ki(calpain) ratio of ≧100) | ++ (Ki(cathepsin B)/Ki(calpain) ratio of ≧30) | ++ (Ki(cathepsin L)/Ki(calpain) ratio of ≧50) | ≤ 40
NC(=O)C(=O)C(Cc1ccccc1)NC(=O)c1cccnc1-n1ccc(-c2ccc3c(c2)OC(F)(F)O3)n1 (stereo not drawn) [Example 118, N-[3-Amino-2,3-dioxo-1-(phenylmethyl)propyl]-2-[3-(2,2-difluoro-1,3-benzodioxol-5-yl)-1H-pyrazol-1-yl]pyridine-3-carboxamide] | + (10≦Ki(cathepsin K)/Ki(calpain)<30) | ++ (Ki(cathepsin S)/Ki(calpain) ratio of ≧100) | ++ (Ki(cathepsin B)/Ki(calpain) ratio of ≧30) | ++ (Ki(cathepsin L)/Ki(calpain) ratio of ≧50) | ≤ 40
